# Data as given in patent US10179120B2, “Dosage regimen of ferric trimaltol” (Iron Therapeutics Holdings AG, priority 2014, dated 2019).
# Legend:
# Type in all cases: in vivo, human
# [1] = Example 2: open-label, randomised, single and repeat dose Phase I pharmacokinetic study in subjects with iron deficiency; details: for reticulocyte haemoglobin, Mean change: baseline to day 8; for Transferrin saturation above baseline / mean serum total iron concentration above baseline: 6 h postdose
# Protocol: These studies were primarily pharmacokinetic and conducted in subjects with iron deficiency having active inflammatory disease or acute chronic inflammation. An open-label, randomised, single and repeat dose parallel group Phase I pharmacokinetic study was carried out to evaluate the effect of single and repeated twice daily (bid) oral doses of ST10 at 30 mg, 60 mg and 90 mg for 8 days.
# 24 subjects with iron deficiency (with or without anaemia) were randomly allocated to one of the three ST10 dose groups as follows:
# Group 1: 9 subjects received ST10, 30 mg twice daily for 7 days (days 1-7) plus a final 30 mg dose on the morning of day 8.
# Group 2: 8 subjects received ST10, 60 mg twice daily for 7 days (days 1-7) plus a final 60 mg dose on the morning of day 8.
# Group 3: 7 subjects received ST10, 90 mg twice daily for 7 days (days 1-7) plus a final 90 mg dose on the morning of day 8.
# On day 1, following fasting for at least 1.5-2 hours beforehand, ST10 was administered (30 mg, 60 mg or 90 mg) and blood samples collected over the following 6 h for analysis. 60 mg was administered as two 30 mg capsules and 90 mg was administered as three 30 mg capsules, both as a single dose. Subjects continued dosing with ST10 on the evening of day 1 then every morning and evening for the next 6 days (Days 2 to 7).
# On day 8 following fasting for at least 1.5-2 hours beforehand the last dosing of ST10 was administered (30 mg, 60 mg or 90 mg) and blood samples collected over the following 6 h for analysis.
# On Days 1 and 8 blood samples were collected predose (0 h=time of ST10 dose) and at 5 minutes (for NTBI only), 15 minutes, 30 minutes, 45 minutes, and 1, 1.5, 2, 3, 4 and 6 h postdose.
# Serum concentrations of transferrin, total iron binding capacity (TIBC), ferritin and soluble transferrin receptor; and reticulocyte haemoglobin concentrations (CHr) in whole blood were measured by central laboratories using appropriately validated methods.
# These studies used transferrin saturation and total serum iron as measurements of iron uptake from the gut into the transport mechanisms. In addition serum ferritin was used as a measure of iron storage status at the end of the dosing period; all of these measurements are standard and well recognised.
# One subject in the 60 mg dose group prematurely withdrew from the study on Day 7, so full profiles of all serum iron parameters were available in the 30 mg dose group for 9 subjects (days 1 and 8), in the 60 mg dose group 8 subjects on day 1 and for 7 subjects on day 8, and in the 90 mg dose group for 7 subjects (days 1 and 8).
# [2] = Example 1: 12-week placebo-controlled study of ST10 30 mg twice daily in IDA patients with IBD
# Protocol: 128 patients suffering from IDA were randomised. Of this group […] were suffering from Crohn's disease and 53 were suffering from ulcerative colitis. All had mild to moderate disease activity and anaemia associated with IBD which was measured according to low haemoglobin levels ([…] for women and 13 g/dL (male) and were intolerant of ferrous iron, or it could not be used. There were no restrictions on the use of gastric pH modifying agents or medications.
# 60 patients were treated with ST10 at a 30 mg dose twice daily, before breakfast and prior to sleep on an empty stomach for a period of 12 weeks.
# 60 patients received a matched placebo capsule and were treated in the same way for the same period. Withdrawal from the study before 12 weeks occurred in seven ST10 subjects and nine placebo subjects. 87% of subjects completed 12 weeks of treatment.
# [3] = Example 1: treatment with 30 mg ST10 twice daily for up to 64 weeks; details: 30 mg twice daily for up to 64 weeks, 109 subjects
# Protocol: 109 of the 128 subjects were treated with 30 mg ST10 twice daily for up to 64 weeks.
substance,measurement,setting,value
ferric trimaltol [ST10],"reticulocyte haemoglobin, Baseline",[1]; 30 mg bid,33.6
same,"reticulocyte haemoglobin, Mean change",[1]; 30 mg bid,0.9
same,"reticulocyte haemoglobin, Day 8",[1]; 30 mg bid,34.6
same,"reticulocyte haemoglobin, Baseline",[1]; 60 mg bid,31.0
same,"reticulocyte haemoglobin, Mean change",[1]; 60 mg bid,3.3
same,"reticulocyte haemoglobin, Day 8",[1]; 60 mg bid,34.1
same,"reticulocyte haemoglobin, Baseline",[1]; 90 mg bid,30.8
same,"reticulocyte haemoglobin, Mean change",[1]; 90 mg bid,3.0
same,"reticulocyte haemoglobin, Day 8",[1]; 90 mg bid,33.9
same,Transferrin saturation above baseline,"[1]; Day 1, 30 mg dose group",17.0%
same,mean serum total iron concentration above baseline,"[1]; Day 1, 30 mg dose group",11.8 µmol/L
same,Transferrin saturation above baseline,"[1]; Day 1, 60 mg dose group",47.3%
same,mean serum total iron concentration above baseline,"[1]; Day 1, 60 mg dose group",33.0 µmol/L
same,Transferrin saturation above baseline,"[1]; Day 1, 90 mg dose group",33.3%
same,mean serum total iron concentration above baseline,"[1]; Day 1, 90 mg dose group",24.3 µmol/L
same,"Transferrin saturation, average maximum value","[1]; Day 1, 30 mg dose group",45.6%
same,"serum total iron concentration, average maximum","[1]; Day 1, 30 mg dose group",32.3 µmol/L
same,"Transferrin saturation, average maximum value","[1]; Day 1, 60 mg dose group",69.8%
same,"serum total iron concentration, average maximum","[1]; Day 1, 60 mg dose group",49.1 µmol/L
same,"Transferrin saturation, average maximum value","[1]; Day 1, 90 mg dose group",67.3%
same,"serum total iron concentration, average maximum","[1]; Day 1, 90 mg dose group",48.7 µmol/L
same,Mean serum ferritin,"[1]; day 1, 30 mg dose group",around 15 μg/L
same,Mean serum ferritin,"[1]; day 1, 60 mg dose group",~10 µg/L
same,Mean serum ferritin,"[1]; day 1, 90 mg dose group",~13 µg/L
same,Mean serum ferritin,"[1]; day 8, 30 mg dose group",~22 µg/L
same,Mean serum ferritin,"[1]; day 8, 60 mg dose group",~22 µg/L
same,Mean serum ferritin,"[1]; day 8, 90 mg dose group",~32 µg/L
same,tolerability,[1]; doses of 30 mg and above,well tolerated
same,improvement of haemoglobin levels,"[2]; 30 mg twice daily, 8 weeks, p<0.0001",1.75 g/dL
same,subjects with adverse events (mainly gastrointestinal),"[2]; 30 mg twice daily, 12 weeks",38%
same,subjects with normalised haemoglobin levels,"[2]; 30 mg twice daily, by week 12",More than 65%
same,tolerability,"[2]; 30 mg twice daily, duration of the treatment",well tolerated
same,Mean Hb increase from baseline to Week 12,"[2]; 30 mg twice daily, empty stomach, 12 weeks",2.26 g/dL
same,improvement of haemoglobin levels,"[2]; 30 mg twice daily, week 4, p<0.0001",1.05 g/dL
same,mean Hb at Week 12,"[2]; 30 mg twice daily, week 12",13.20 g/dL
same,"mean improvement in Hb, change from baseline compared to placebo","[2]; 30 mg twice daily, week 12, p<0.0001",2.25 g/dL
same,mean Hb at baseline,"[2]; ST10-treated subjects, baseline",11.10 g/dL
same,blackened stools,[2]; patients in the study of Example 1,did not report blackened stools
same,subjects with adverse reactions,[3],23%
